The values below come from patent US20220259212A1, “INHIBITORS OF INDOLEAMINE 2,3-DIOXYGENASE AND/OR TRYPTOPHAN 2,3-DIOXYGENASE” (Idorsia Pharmaceuticals Ltd, priority 2019, published 2022).

For assay [1], the target named is T1, Recombinant full-length human IDO1 (Homo sapiens, UniProt P14902).
T1 construct: Recombinant full-length human IDO1 with a N-terminal hexahistidine tag; hexahistidine (N); made in house; host or cells: E. coli
The assay can be described thus: IDO1 enzymatic assay (NFK quantified by LCMS). It counts as biochemical. The conditions noted are these: 2 nM enzyme, 5 μM L-tryptophan, 30 min pre-incubation, pH6.5; mean if measured multiple times; read-out: hIDO activity (IC50 in nM). The essentials:
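His-tagged full-length IDO1 (E. coli, 2 nM final) in pH 6.5 phosphate with ascorbate, methylene blue and catalase was preincubated 30 min at RT with compound (10 µM–0.5 nM, 0.6% DMSO), then run 30 min at RT with 5 µM L-Trp. NFK was measured by LCMS against a d5-Trp standard. IC50 came from a four-parameter fit of duplicates.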

In assay [2] the target is T2, Recombinant human TDO comprising amino acids 19-407 (Homo sapiens, UniProt P48775).
T2 construct: human TDO comprising amino acids 19-407; hexahistidine (N); made in house; host or cells: E. coli
T2 sequence (P48775 19-406 limits assumed): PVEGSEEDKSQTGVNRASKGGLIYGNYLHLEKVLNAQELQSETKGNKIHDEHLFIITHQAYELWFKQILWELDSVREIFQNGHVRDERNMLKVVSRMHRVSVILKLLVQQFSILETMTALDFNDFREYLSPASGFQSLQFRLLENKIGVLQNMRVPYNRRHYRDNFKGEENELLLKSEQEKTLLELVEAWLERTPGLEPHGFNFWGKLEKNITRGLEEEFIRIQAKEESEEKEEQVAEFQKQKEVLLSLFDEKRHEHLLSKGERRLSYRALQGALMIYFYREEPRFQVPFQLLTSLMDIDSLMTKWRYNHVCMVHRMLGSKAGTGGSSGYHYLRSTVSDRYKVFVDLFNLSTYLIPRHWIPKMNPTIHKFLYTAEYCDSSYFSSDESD
The assay can be described thus: TDO2 enzymatic assay (NFK quantified by LCMS). The settings on record: 15 nM enzyme, 200 μM L-tryptophan, 30 min pre-incubation, pH7; mean if measured multiple times; read-out: hTDO activity (IC50 in nM). The format is biochemical. The essentials: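 E. coli-expressed N-terminal His-tagged TDO (15 nM) in pH 7 phosphate buffer with ascorbate and catalase, preincubated 30 min at RT with compound (10 μM to 0.5 nM, 0.6% DMSO). Reaction started with 200 μM L-tryptophan for 30 min at RT; NFK measured by LCMS against deuterated internal standard, IC50 by four-parameter fit, duplicates.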

In the next assay the target is T3, IDO1 in SKOV3 cells (Homo sapiens, UniProt P14902).
T3 construct: SKOV3 cells (NCI, No. 0503405) which upregulate IDO1 after stimulation with IFNγ; host or cells: SKOV3 cells stimulated with IFNγ
T3 sequence (P14902 whole entry): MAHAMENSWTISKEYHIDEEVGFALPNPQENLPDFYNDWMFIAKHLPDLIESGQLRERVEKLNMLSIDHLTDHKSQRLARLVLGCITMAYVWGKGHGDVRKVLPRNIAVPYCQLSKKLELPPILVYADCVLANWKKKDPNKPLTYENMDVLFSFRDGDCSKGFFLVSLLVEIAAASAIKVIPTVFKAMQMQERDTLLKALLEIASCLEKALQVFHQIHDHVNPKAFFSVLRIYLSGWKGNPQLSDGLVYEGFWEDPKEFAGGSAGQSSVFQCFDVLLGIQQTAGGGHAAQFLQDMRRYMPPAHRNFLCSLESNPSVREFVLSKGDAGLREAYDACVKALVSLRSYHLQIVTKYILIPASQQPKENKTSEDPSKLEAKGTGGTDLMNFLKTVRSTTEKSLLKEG
Kind of assay: Cell-based IDO inhibitory activity in IFNγ-stimulated SKOV3 cells (NFK + kynurenine by LCMS). The settings on record: IFNγ 50 ng/ml, 200 uM L-tryptophan, 24 hours. The essentials:
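SKOV3 cells (4000/well, pre-cultured 24 h) were treated with compound (10 uM-40 nM) plus 200 uM L-tryptophan and 50 ng/ml IFNγ for 24 h at 37° C. N-formylkynurenine plus kynurenine in supernatant was measured by LCMS against a d5-tryptophan internal standard. IC50 was fitted against 0.2% DMSO and reference-inhibitor controls, in duplicate, with repeat measurements averaged.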

T1 sequence (P14902 whole entry): as above

In the case of `CC(C)(O)COc1ccc(-n2cc([C@H](O)c3c(C4CC4)ncc4cncn34)nn2)cc1F` [Example 29, 1-(4-{4-[(R)-(6-Cyclopropyl-imidazo[1,5-a]pyrazin-5-yl)-hydroxy-methyl]-[1,2,3]triazol-1-yl}-2-fluoro-phenoxy)-2-methyl-propan-2-ol], the results for the 50% inhibitory concentration (IC50) (in assay [1]; in assay [2]; at IDO1 in SKOV3 cells) were 7.74 nM, over 10200 nM and 29.9 nM, respectively.
The matching figures for `COc1ccc(-n2cc([C@H](O)c3c(Cl)ccc4cncn34)nn2)cc1` [Example 30, (R)-(6-Chloro-imidazo[1,5-a]pyridin-5-yl)-[1-(4-methoxy-phenyl)-1H-[1,2,3]triazol-4-yl]-methanol]: 3.68 nM, 8600 nM and 52.4 nM.
The matching figures for `COc1cc(F)c(-n2cc([C@H](O)c3c(Cl)ccc4cncn34)nn2)cc1F` [Example 31, (R)-(6-Chloro-imidazo[1,5-a]pyridin-5-yl)-[1-(2,5-difluoro-4-methoxy-phenyl)-1H-[1,2,3]triazol-4-yl]-methanol]: 1.13 nM, over 10200 nM and 9.2 nM.
The matching figures for `COc1ccc(-n2cc([C@H](O)c3c(C4CC4)ncc4cncn34)nn2)c(F)c1Cl` [Example 33, (R)-[1-(3-Chloro-2-fluoro-4-methoxy-phenyl)-1H-[1,2,3]triazol-4-yl]-(6-cyclopropyl-imidazo[1,5-a]pyrazin-5-yl)-methanol]: 5.33 nM, over 10200 nM and 127 nM.
For `CCc1ccc2cncn2c1[C@@H](O)c1cn(-c2ccc(OC)cc2)nn1` [Example 34a, (R)-(6-Ethyl-imidazo[1,5-a]pyridin-5-yl)-[1-(4-methoxy-phenyl)-1H-[1,2,3]triazol-4-yl]-methanol], the IC50 (usually the concentration that gives 50% inhibition) in assay [1] was 1.82 nM; in assay [2] it was over 10200 nM; at IDO1 in SKOV3 cells it was 7.92 nM.
Turning to `CCc1ccc2cncn2c1[C@@H](O)c1cn(-c2cc(F)c(OC)cc2F)nn1` [Example 35a, (R)-[1-(2,5-Difluoro-4-methoxy-phenyl)-1H-[1,2,3]triazol-4-yl]-(6-ethyl-imidazo[1,5-a]pyridin-5-yl)-methanol], the figures for the IC50 (in assay [1]; in assay [2]; on IDO1 in SKOV3 cells) were 2.39 nM, over 10200 nM and 0.95 nM, respectively.
The matching figures for `O[C@@H](c1cn(-c2ccc(OCC3COC3)c(F)c2)nn1)c1c(C2CC2)ncc2cncn12` [Example 36, (R)-(6-Cyclopropyl-imidazo[1,5-a]pyrazin-5-yl)-{1-[3-fluoro-4-(oxetan-3-ylmethoxy)-phenyl]-1H-[1,2,3]triazol-4-yl}-methanol]: 8.33 nM, over 10200 nM and 16.8 nM.
The matching figures for `O[C@@H](c1cn(-c2ccc(N3CCCC3)cc2)nn1)c1c(C2CC2)ncc2cncn12` [Example 40, (R)-(6-Cyclopropyl-imidazo[1,5-a]pyrazin-5-yl)-[1-(4-pyrrolidin-1-yl-phenyl)-1H-[1,2,3]triazol-4-yl]-methanol]: 16.5 nM, over 10200 nM and 154 nM.
For `Nc1ccc(-n2cc([C@H](O)c3c(C4CC4)ncc4cncn34)nn2)cc1` [Example 41, (R)-[1-(4-Amino-phenyl)-1H-[1,2,3]triazol-4-yl]-(6-cyclopropyl-imidazo[1,5-a]pyrazin-5-yl)-methanol], the IC50 in assay [1] is 17.5 nM; in assay [2], over 10200 nM; on IDO1 in SKOV3 cells, 212 nM.
The matching figures for `CNc1ccc(-n2cc([C@H](O)c3c(C4CC4)ncc4cncn34)nn2)cc1` [Example 42, (R)-(6-Cyclopropyl-imidazo[1,5-a]pyrazin-5-yl)-[1-(4-methylamino-phenyl)-1H-[1,2,3]triazol-4-yl]-methanol]: 13.5 nM, over 10200 nM and 199 nM.
The matching figures for `CN(C)c1ccc(-n2cc([C@H](O)c3c(C4CC4)ncc4cncn34)nn2)cc1` [Example 44, (R)-(6-Cyclopropyl-imidazo[1,5-a]pyrazin-5-yl)-[1-(4-dimethylamino-phenyl)-1H-[1,2,3]triazol-4-yl]-methanol]: 14.5 nM, over 10200 nM and 377 nM.
The matching figures for `O[C@@H](c1cn(-c2ccc(N3CC4(COC4)C3)cc2)nn1)c1c(C2CC2)ncc2cncn12` [Example 45, (R)-(6-Cyclopropyl-imidazo[1,5-a]pyrazin-5-yl)-{1-[4-(2-oxa-6-aza-spiro[3.3]hept-6-yl)-phenyl]-1H-[1,2,3]triazol-4-yl}-methanol]: 15 nM, over 10200 nM and 56.8 nM.
For `O[C@@H](c1cn(-c2ccc(N3CCC34COC4)cc2)nn1)c1c(C2CC2)ncc2cncn12` [Example 46, (R)-(6-Cyclopropyl-imidazo[1,5-a]pyrazin-5-yl)-{1-[4-(6-oxa-1-aza-spiro[3.3]hept-1-yl)-phenyl]-1H-[1,2,3]triazol-4-yl}-methanol], the concentration for half-maximal inhibition (IC50) is 15.1 nM in assay [1], over 10200 nM in assay [2] and 356 nM at IDO1 in SKOV3 cells.
`CN1CCc2cc(-n3cc([C@H](O)c4c(C5CC5)ncc5cncn45)nn3)ccc21` [Example 47, (R)-(6-Cyclopropyl-imidazo[1,5-a]pyrazin-5-yl)-[1-(1-methyl-2,3-dihydro-1H-indol-5-yl)-1H-[1,2,3]triazol-4-yl]-methanol]: the concentration for half-maximal inhibition (IC50) in assay [1] is 7.76 nM; in assay [2] it was over 10200 nM; at IDO1 in SKOV3 cells it was 145 nM.
